ChEMBL document CHEMBL4715877, “Asperginols A and B, Diterpene Pyrones, from an Aspergillus sp. and the Structure Revision of Previously Reported Analogues” (J Nat Prod, 2020)

Legend:
Type in all cases: functional, cell-based
[1] = tested on: HT-29; test: Cytotoxicity against human HT-29 cells assessed as reduction in cell viability after 72 hrs by MTT assay
[2] = tested on: HCT-116; test: Cytotoxicity against human HCT-116 cells assessed as reduction in cell viability after 72 hrs by MTT assay
[3] = tested on: HepG2; test: Cytotoxicity against human HepG2 cells assessed as reduction in cell viability after 72 hrs by MTT assay

Row | Compound | IC50 ([1]; Homo sapiens, HT-29, 72 h, read-out: IC50) [µM] | IC50 [2] | IC50 [3] | IC50 ([1]; ht-29)
1 | C=C1[C@H](O)C[C@@H]2[C@](C)(CC[C@H]3OC(C)(C)[C@@H](OC(=O)/C=C/C=C/C=C/[C@@H](C)CC)CC[C@]23C)[C@@H]1Cc1c(O)c(C)c(C)oc1=O | 7.6 | Not Active | Not Active | 
2 | C=C1[C@H](O)C[C@@H]2[C@](C)(CC[C@H]3OC(C)(C)[C@@H](OC(=O)/C=C/C=C/[C@@H](C)CC)CC[C@]23C)[C@@H]1Cc1c(O)c(C)c(C)oc1=O |  | Not Active | Not Active | Not Active
3 | C=C1CC[C@@H]2[C@](C)(CC[C@H]3OC(C)(C)[C@@H](OC(=O)/C=C/C=C/[C@@H](C)CC)CC[C@]23C)[C@@H]1Cc1c(O)c(C)c(C)oc1=O |  | Not Active | Not Active | Not Active
4 | C=C1[C@H](O)C[C@@H]2[C@](C)(CC[C@H]3OC(C)(C)[C@@H](O)CC[C@]23C)[C@@H]1Cc1c(O)c(C)c(C)oc1=O |  | Not Active | Not Active | Not Active
5 | C=C1[C@H](O)C[C@@H]2[C@](C)(CC[C@H]3OC(C)(C)[C@@H](OC(C)=O)CC[C@]23C)[C@@H]1Cc1c(O)c(C)c(C)oc1=O |  | Not Active | Not Active | Not Active
6 | C=C1CC[C@@H]2[C@](C)(CC[C@H]3OC(C)(C)[C@@H](O)CC[C@]23C)[C@@H]1Cc1c(O)c(C)c(C)oc1=O |  | Not Active | Not Active | Not Active
